Measurements as given in patent EP0680973A1, “Peptides, process to prepare them and their use” (priority 1994, dated 1995).
Ends that are not written are not given here.

Test system: HIV-1 Protease
Type: biochemical
Settings: bei 50 µM, nur 1 Bestimmung; 5% DMSO

**Q.** How did the “Inhibition der HIV-1 Protease” value turn out when “PQITLSDRLGGGGDRVSFNF-NH2 [HPQITLSDRLGGGGDRVSFNF-NH₂]” was run?
**A.** 36%⁺
